Reference: ChEMBL document CHEMBL4020763, “N-(1H-Pyrazol-3-yl)quinazolin-4-amines as a novel class of casein kinase 1δ/ε inhibitors: Synthesis, biological evaluation and molecular modeling studies” (Bioorg Med Chem Lett, 2017)
pIC50: −log10 of the molar value.

Columns and labels:
[1] = target: Glycogen synthase kinase-3 (Sus scrofa, UniProt B2LUN4+I6LNT8); assay: Inhibition of porcine brain GSK-3 alpha/beta using YRRAAVPPSPSLSRHSSPHQpSEDEEE as substrate after 30 mins in presence of ATP by scintillation counting method
[2] = Inhibition of M-phase starfish oocytes CDK1/cyclin B using histone H1 as substrate after 30 mins in presence of ATP by scintillation counting method; design: species or system Asteroidea
CDK2/Cyclin A2 = CDK2/Cyclin A2 (Homo sapiens, UniProt P24941); assay: Inhibition of recombinant human CDK2/cyclin A using histone H1 as substrate after 30 mins in presence of ATP by scintillation counting method; format: protein-complex assay
MDA-MB-468 [3] = assay: Cytotoxicity against human MDA-MB-468 cells by MTT assay; format: functional, cell-based
PANC-1 [4] = assay: Growth inhibition of human PANC1 cells at 100 uM by MTT assay relative to control; format: functional; details: read-out: GI
HCT-15 [5] = assay: Cytotoxicity against human HCT15 cells by MTT assay; format: functional, cell-based
HCT-15 [6] = assay: Growth inhibition of human HCT15 cells at 100 uM by MTT assay relative to control; format: functional; details: read-out: GI
[7] = target: Dual specificity protein kinase CLK1 (Mus musculus, UniProt P22518); assay: Inhibition of recombinant mouse GST-fused CLK1 expressed in Escherichia coli using RS peptide as substrate after 30 mins in presence of ATP by scintillation counting method
Dual specificity protein kinase CLK1, sequence (P22518 whole entry, the tested form may be a part): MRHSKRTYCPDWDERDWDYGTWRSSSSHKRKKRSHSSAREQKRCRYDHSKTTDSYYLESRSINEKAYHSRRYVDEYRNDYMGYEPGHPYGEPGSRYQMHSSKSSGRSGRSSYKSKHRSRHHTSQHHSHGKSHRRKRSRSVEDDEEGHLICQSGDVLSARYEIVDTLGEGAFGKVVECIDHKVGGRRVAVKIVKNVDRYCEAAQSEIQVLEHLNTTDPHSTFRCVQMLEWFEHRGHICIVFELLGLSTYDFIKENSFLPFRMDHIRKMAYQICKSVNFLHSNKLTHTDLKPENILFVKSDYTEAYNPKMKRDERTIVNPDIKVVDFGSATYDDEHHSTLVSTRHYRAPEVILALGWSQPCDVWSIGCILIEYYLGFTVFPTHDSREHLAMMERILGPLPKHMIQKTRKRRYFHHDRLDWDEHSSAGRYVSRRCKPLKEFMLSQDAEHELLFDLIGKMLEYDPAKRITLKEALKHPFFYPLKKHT

HEK293 = assay: Cytotoxicity against HEK293 cells by MTT assay; format: cell-based; details: Homo sapiens
[8] = target: CDK2/Cyclin A2 (Homo sapiens) (UniProt P24941+P20248); assay: Inhibition of recombinant human CDK2/cyclin A at 10 uM using histone H1 as substrate after 30 mins in presence of ATP by scintillation counting method relative to control; format: protein-complex assay
ZR-75-1 [9] = assay: Cytotoxicity against human ZR-75-1 cells by MTT assay; format: functional, cell-based
[10] = Growth inhibition of HEK293 cells at 100 uM by MTT assay relative to control; format: cell-based; details: human, read-out: GI
MCF7 [11] = assay: Growth inhibition of human MCF7 cells at 100 uM by MTT assay relative to control; format: functional; details: read-out: GI
Sus scrofa = species: Sus scrofa; assay: Inhibition of porcine brain CK1-delta/epsilon at 10 uM using CSK peptide as substrate after 30 mins in presence of ATP by scintillation counting method relative to control
MDA-MB-231 [12] = assay: Cytotoxicity against human MDA-MB-231 cells by MTT assay; format: functional, cell-based
MCF7 [13] = assay: Cytotoxicity against human MCF7 cells by MTT assay; format: functional, cell-based
[14] = target: Dual specificity protein kinase CLK1 (Mus musculus) (UniProt P22518); assay: Inhibition of recombinant mouse GST-fused CLK1 expressed in Escherichia coli at 10 uM using RS peptide as substrate after 30 mins in presence of ATP by scintillation counting method relative to control
Dual specificity protein kinase CLK1 (Mus musculus), sequence (P22518 whole entry, looked up, the tested form may be a part): as the sequence (P22518 whole entry, the tested form may be a part) above

DU-145 = assay: Growth inhibition of human DU145 cells at 100 uM by MTT assay relative to control; format: functional; details: read-out: GI
[15] = target: Cyclin-dependent kinase 5/CDK5 activator 1 (Homo sapiens) (UniProt Q00535+Q15078); assay: Inhibition of recombinant human CDK5/p25 expressed in Escherichia coli at 10 uM using histone H1 as substrate after 30 mins in presence of ATP by scintillation counting method relative to control
Cyclin-dependent kinase 5/CDK5 activator 1 (Homo sapiens), sequence (Q00535 whole entry): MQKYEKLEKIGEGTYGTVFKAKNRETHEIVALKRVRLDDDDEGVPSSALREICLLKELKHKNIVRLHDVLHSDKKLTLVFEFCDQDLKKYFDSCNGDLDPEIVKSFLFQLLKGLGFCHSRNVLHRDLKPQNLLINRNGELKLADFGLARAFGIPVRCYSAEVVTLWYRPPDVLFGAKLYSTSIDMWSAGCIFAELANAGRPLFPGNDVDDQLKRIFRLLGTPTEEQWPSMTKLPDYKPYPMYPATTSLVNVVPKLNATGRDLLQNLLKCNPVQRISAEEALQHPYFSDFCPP
Cyclin-dependent kinase 5/CDK5 activator 1 (Homo sapiens), sequence (Q15078 99-307 partner limits assumed): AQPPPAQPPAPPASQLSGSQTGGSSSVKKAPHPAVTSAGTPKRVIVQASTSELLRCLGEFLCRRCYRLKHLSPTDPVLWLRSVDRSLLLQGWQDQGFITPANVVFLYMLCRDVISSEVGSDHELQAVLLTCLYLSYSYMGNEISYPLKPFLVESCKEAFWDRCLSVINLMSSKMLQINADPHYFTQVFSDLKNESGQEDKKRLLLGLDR

MIA PaCa-2 [16] = assay: Growth inhibition of human MIAPaCa2 cells at 100 uM by MTT assay relative to control; format: functional; details: read-out: GI
ZR-75-30 [17] = assay: Cytotoxicity against human ZR-7530 cells by MTT assay; format: functional, cell-based
[18] = target: CDK9/cyclin T1 (Homo sapiens) (UniProt O60563+P50750); assay: Inhibition of recombinant human CDK9/cyclin T expressed in insect cells at 10 uM using YSPTSPSYSPTSPSYSPTSPSKKKK as substrate after 30 mins in presence of ATP by scintillation counting method relative to control
ZR-75-1 [19] = assay: Growth inhibition of human ZR-75-1 cells at 100 uM by MTT assay relative to control; format: functional; details: read-out: GI
[20] = target: Glycogen synthase kinase-3 (Sus scrofa) (UniProt B2LUN4+I6LNT8); assay: Inhibition of porcine brain GSK-3 alpha/beta at 10 uM using YRRAAVPPSPSLSRHSSPHQpSEDEEE as substrate after 30 mins in presence of ATP by scintillation counting method relative to control
PANC-1 [21] = assay: Cytotoxicity against human PANC1 cells by MTT assay; format: functional, cell-based
MDA-MB-468 [22] = assay: Growth inhibition of human MDA-MB-468 cells at 100 uM by MTT assay relative to control; format: functional; details: read-out: GI
A549 [23] = assay: Cytotoxicity against human A549 cells by MTT assay; format: functional, cell-based
ZR-75-30 [24] = assay: Growth inhibition of human ZR-7530 cells at 100 uM by MTT assay relative to control; format: functional; details: read-out: GI
Asteroidea = assay: Inhibition of M-phase starfish oocytes CDK1/cyclin B at 10 uM using histone H1 as substrate after 30 mins in presence of ATP by scintillation counting method relative to control
MDA-MB-231 [25] = assay: Growth inhibition of human MDA-MB-231 cells at 100 uM by MTT assay relative to control; format: functional; details: read-out: GI
[26] = target: Dual specificity tyrosine-phosphorylation-regulated kinase 1A (Homo sapiens) (UniProt Q13627); assay: Inhibition of recombinant full length human GST-fused DYRK1A expressed in Escherichia coli at 10 uM using RS peptide as substrate after 30 mins in presence of ATP by scintillation counting method relative to control
A549 [27] = assay: Growth inhibition of human A549 cells at 100 uM by MTT assay relative to control; format: functional; details: read-out: GI
BT-20 [28] = assay: Cytotoxicity against human BT20 cells by MTT assay; format: functional, cell-based
MIA PaCa-2 [29] = assay: Cytotoxicity against human MIAPaCa2 cells by MTT assay; format: functional, cell-based
BT-20 [30] = assay: Growth inhibition of human BT20 cells at 100 uM by MTT assay relative to control; format: functional; details: read-out: GI
[31] = Inhibition of porcine brain CK1-delta/epsilon using CSK peptide as substrate after 30 mins in presence of ATP by scintillation counting method; design: species or system Sus scrofa

| SMILES | pIC50 [1] | pIC50 [2] | pIC50 (CDK2/Cyclin A2) | pIC50 (MDA-MB-468 [3]) | inhibition of growth at 100 µM (PANC-1 [4]) [%] | pIC50 (HCT-15 [5]) | inhibition of growth at 100 µM (HCT-15 [6]) [%] | pIC50 [7] | pIC50 (HEK293) | inhibition [8] [%] | pIC50 (ZR-75-1 [9]) | inhibition at 100 µM [10] [%] | inhibition of growth at 100 µM (MCF7 [11]) [%] | inhibition (Sus scrofa) [%] | pIC50 (MDA-MB-231 [12]) | pIC50 (MCF7 [13]) | inhibition [14] [%] | inhibition of growth at 100 µM (DU-145) [%] | inhibition [15] [%] | inhibition of growth at 100 µM (MIA PaCa-2 [16]) [%] | other results |
| --- | --- | --- | --- | --- | --- | --- | --- | --- | --- | --- | --- | --- | --- | --- | --- | --- | --- | --- | --- | --- | --- |
| COc1ccc2c(c1)[nH]c1c(C)nccc12 [HARMINE] | < 5.00 | < 5.00 | < 5.00 | – | – | – | – | – | – | – | – | – | – | – | – | – | – | – | – | – | – |
| COc1cc2ncnc(Nc3n[nH]cc3C#N)c2cc1OC | < 5.00 | < 5.00 | < 5.00 | < 4.00 | > 50 | < 4.00 | > 50 | < 5.00 | < 4.00 | > 50 | < 4.00 | > 50 | > 50 | > 50 | < 4.00 | < 4.00 | > 50 | > 50 | > 50 | > 50 | pIC50 (ZR-75-30 [17]): < 4.00; inhibition [18]: > 50%; inhibition of growth at 100 µM (ZR-75-1 [19]): > 50%; inhibition [20]: > 50%; pIC50 (PANC-1 [21]): < 4.00; inhibition of growth at 100 µM (MDA-MB-468 [22]): > 50%; pIC50 (A549 [23]): < 4.00; inhibition of growth at 100 µM (ZR-75-30 [24]): > 50%; inhibition (Asteroidea): > 50%; inhibition of growth at 100 µM (MDA-MB-231 [25]): > 50%; inhibition [26]: > 50%; inhibition of growth at 100 µM (A549 [27]): > 50%; pIC50 (BT-20 [28]): < 4.00; pIC50 (MIA PaCa-2 [29]): < 4.00; inhibition of growth at 100 µM (BT-20 [30]): > 50%; pIC50 [31]: > 5.00 |
| COc1ccc(-c2cc(Nc3ncnc4cc(OC)c(OC)cc34)n[nH]2)cc1 | < 5.00 | < 5.00 | < 5.00 | 4.34 | > 50 | > 4.00 | > 50 | < 5.00 | < 4.00 | > 50 | < 4.00 | > 50 | > 50 | > 50 | > 4.00 | < 4.00 | > 50 | > 50 | > 50 | > 50 | pIC50 (ZR-75-30 [17]): > 4.00; inhibition [18]: > 50%; inhibition of growth at 100 µM (ZR-75-1 [19]): > 50%; inhibition [20]: > 50%; pIC50 (PANC-1 [21]): < 4.00; inhibition of growth at 100 µM (MDA-MB-468 [22]): > 50%; pIC50 (A549 [23]): < 4.00; inhibition of growth at 100 µM (ZR-75-30 [24]): > 50%; inhibition (Asteroidea): > 50%; inhibition of growth at 100 µM (MDA-MB-231 [25]): > 50%; inhibition [26]: > 50%; inhibition of growth at 100 µM (A549 [27]): > 50%; pIC50 (BT-20 [28]): < 4.00; pIC50 (MIA PaCa-2 [29]): > 4.00; inhibition of growth at 100 µM (BT-20 [30]): > 50%; pIC50 [31]: > 5.00 |
